Biological target: T1, McjD (antibacterial peptide ATP-binding cassette transporter) (Escherichia coli, UniProt Q9X2W0)
T1 construct: full-length, detergent (dodecyl maltopyranoside) purified, ~66 kDa, 580 residues per vanadium, homodimer; prepared as described previously
Experiment: X-ray crystallography (V-SAD, […] Å, phased anomalous difference maps)
Conditions: complex formed with 2 mM ATP, 2 mM sodium orthovanadate, 5 mM MgCl2, pH 7.8; post-hydrolysis ADP-VO4 state; one site per monomer

T1 sequence (Q9X2W0 whole entry): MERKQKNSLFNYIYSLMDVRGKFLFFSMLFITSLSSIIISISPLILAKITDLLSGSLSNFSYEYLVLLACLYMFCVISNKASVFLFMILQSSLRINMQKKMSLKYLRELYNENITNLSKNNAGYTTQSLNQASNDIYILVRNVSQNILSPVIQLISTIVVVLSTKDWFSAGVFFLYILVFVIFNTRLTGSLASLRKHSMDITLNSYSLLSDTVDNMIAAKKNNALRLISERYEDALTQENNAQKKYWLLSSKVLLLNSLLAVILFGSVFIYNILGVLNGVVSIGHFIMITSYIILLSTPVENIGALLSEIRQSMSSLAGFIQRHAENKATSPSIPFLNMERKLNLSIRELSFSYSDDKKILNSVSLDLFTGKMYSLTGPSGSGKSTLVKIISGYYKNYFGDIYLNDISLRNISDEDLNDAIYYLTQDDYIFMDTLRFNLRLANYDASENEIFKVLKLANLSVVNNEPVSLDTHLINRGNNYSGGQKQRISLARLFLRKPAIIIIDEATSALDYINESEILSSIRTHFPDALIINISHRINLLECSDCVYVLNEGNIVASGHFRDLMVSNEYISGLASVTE

[O]=[V]([OH])([OH])[OH] [VO4]
X-ray crystallography (V-SAD, 3.4 Å, phased anomalous difference maps): two vanadium sites (one per monomer) could easily be located

— publication PMC7642786, “Experimental phasing with vanadium and application to nucleotide-binding membrane proteins” (IUCrJ, 2020)
